Experimental data from patent US10188630B2, “Methods for identifying and using inhibitors of casein kinase 1 epsilon isoform for inhibiting the growth and/or proliferation of MYC-driven tumor cells” (Fred Hutchinson Cancer Research Center, priority 2010, dated 2019).

Columns and labels:
[1] = system: IMR-32 (amplified MYCN expression); conditions: 1 μM or 10 μM; 48, 72 and 96 hours; compared to SK-N-AS
Protocol: (§1) Cyclopamine, a known natural inhibitor of SHH, was administered to SK-N-AS and IMR-32, to assess the impact of SHH inhibition on cell viability of neuroblastoma cells with normal and amplified MYCN expression, respectively. Cyclopamine was administered to the SK-N-AS and IMR-32 in 1 μM or 10 μM doses, and the growth inhibition was assayed at 48, 72 and 96 hours.

[2] = system: SK-N-AS (normal MYCN expression); conditions: 1 μM or 10 μM; 48, 72 and 96 hours
Protocol: as §1

[3] = system: PEO1 ovarian cancer cells; assay: Cell viability with cisplatin in presence or absence of IC261; type: cell-based; conditions: 1 μM IC-261 with low doses of cisplatin
Source text: (§2) Cisplatin, or cis-diamminedichloroplatinum(II) (CDDP), is a chemotherapy drug commonly used to treat numerous types of cancers including ovarian cancer. Cisplatin contains platinum complexes that crosslink DNA, ultimately triggering apoptosis of the cell. However, many treated cancer relapse and display a resistance to cisplatin. Considering the ability of CSNK1ε inhibitors to reduce viability of cells with amplified c-MYC expression, a similar role of CSNK1ε inhibitors on cisplatin resistant cancer cells was investigated. A2780 and A2780-CP70 (resistant derivative), PEO1 and PEO4 (resistant derivative of PE01) ovarian cancer cell lines were cultured in the presence of increasing doses of cisplatin and the presence or absence of IC261. Cell viability was monitored as described above. […] It is noted that the c-MYC expression level in A2780 cells is yet undetermined.

[4] = system: A2780 ovarian cancer cells; assay: as above; type: cell-based; conditions: 1 μM IC-261 with increasing doses of cisplatin
Source text: as §2

[5] = system: A2780-CP70 (cisplatin-resistant) ovarian cancer cells; assay: as above; type: cell-based; conditions: 1 μM IC-261 with increasing doses of cisplatin
Source text: as §2

[6] = system: IMR-32 cells (amplified MYCN expression); assay: Microscopic analysis of neuroblastoma cells after IC261; type: cell-based; conditions: 48 hours; 0.1 μM or 1.0 μM IC261
Protocol: (§3) Microscopic analysis of the SN-N-AS (normal MYCN expression) and IMR-32 (amplified MYCN expression) neuroblastoma cell lines, further supporting the differential effect of the CSNK1ε inhibitor, IC261, on the health and proliferation of neuroblastoma cells overexpressing MYCN. Referring to FIG. 5, top line, micrographs are provided illustrating SK-N-AS (normal MYCN expression) cells in culture before and 48 hours after culture with DMSO, 0.33 μM, or 3.3 μM IC261. Referring to FIG. 5, bottom line, micrographs are provided illustrating IMR-32 cells (amplified MYCN expression) in culture before and 48 hours after culture with DMSO, 0.1 μM, or 1.0 μM IC261.

[7] = system: SK-N-AS (normal MYCN expression) cells; assay: as above; type: cell-based; conditions: 48 hours; 0.33 μM or 3.3 μM IC261
Protocol: as §3

[8] = system: PEO4 (cisplatin-resistant derivative) ovarian cancer cells; assay: Cell viability with cisplatin in presence or absence of IC261; type: cell-based, human; conditions: 1 μM IC-261 with low doses of cisplatin
Source text: as §2

[9] = system: CaOV3 cells (normal c-MYC expression); assay: Cell cycle analysis (Propidium Iodide staining, FACS); type: cell-based, human; conditions: 1 μM IC261; 16 and 24 hours
Protocol: (§4) Ovarian cancer cell lines with normal (i.e., low) and amplified expression of c-MYC were assessed for the impact of the CSNK1ε inhibitor IC261 on the progression of the cell cycle. CaOV3 cells (normal c-MYC expression) and TOV112D cells (amplified c-MYC expression) were cultured in 1 μM IC261. The cells were assessed for the state of the cell cycle, namely G1, S-phase, and G2, at time points before and 16 and 24 hours after contact with IC261 by Propidium Iodide staining followed by FACS analysis. […] However, the levels were lower for the cells with amplified c-MYC expression. […] This trend was not observed for the cancer cells with normal c-MYC expression.

[10] = system: TOV112D cells (amplified c-MYC expression); assay: as above; type: cell-based, human; conditions: 1 μM IC261; 16 and 24 hours
Protocol: as §4

[11] = system: WNT signaling (β-catenin reporter) in Tet-21N neuroblastoma cells; assay: Integrated WNT reporter in Tet-21N neuroblastoma cells; type: cell-based; conditions: MYCN-on cells
Protocol: (§5) CSNK1ε has been implicated as a positive regulator of WNT signaling (Sakanaka, C., “Phosphorylation and Regulation of Beta-Catenin by Casein Kinase I Epsilon,” J Biochem 132:697-703, 2002). To determine the functional status of WNT activity in neuroblastoma cells with or without amplified MYCN expression, a WNT dual reporter system, employing both consensus (TOP) and mutant (FOP) TCF binding sites was assayed in neuroblastoma cell lines SK-N-AS (MYCN not amplified), SH-Sy5Y (MYCN not amplified), IMR-32 (MYCN amplified and overexpressed), and SK-N-BE2 (MYCN amplified and overexpressed), as described in (Biechele, T. L., et al., “Transcription-Based Reporters of Wnt/beta-Catenin Signaling,” Cold Spring Harb Protoc 2009, pdb prot5223).
A potential direct connection of WNT with MYCN expression was explored utilizing neuroblastoma cells expressing an inducible Tet-MYCN gene. Tet-21N neuroblastoma cells (normal MYCN expression) carrying a Tet-off-MYCN gene, were treated with or without Dox (a tetracycline compound), as described supra. […] Further, the WNT activity was assayed through the detectable activity of an integrated WNT reporter.

[12] = system: IMR-32 (amplified MYCN expression) xenograft blastoma tumors; assay: IMR-32 neuroblastoma xenograft in NOD/SCID mice; type: in vivo
Protocol: To evaluate the therapeutic potential of CSNK1ε kinase inhibitors, IC261, a small molecule inhibitor of CSNK1ε and d kinase activity (Mashhoon, N., et al., “Crystal Structure of a Conformation-Selective Casein Kinase-1 Inhibitor,” J Biol Chem 275:20052-20060, 2000) was administered to mice with established IMR-32 (amplified MYCN expression) xenograft blastoma tumors. Specifically, 10 NOD/SCID mice were injected with 1×10^7 IMR-32 blastoma cells. The tumors were allowed to establish for 6 weeks. The mice were randomized into control and IC261 treatment groups. At the start of treatment, the average tumor size for the control mice was 98.8±42.5 mm^3, whereas the average tumor size for the IC261 treatment group was 121.9±46.9 mm^3. The groups were subcutaneously injected once daily for seven days with 20.5 mg/kg of IC261 or DMSO in 200 μl. During treatment, the tumor size was monitored. […] However, at day three the average tumor volume of the IC261-treated mice was reduced, a trend that continued throughout the remaining treatment schedule, ultimately to a volume of about 100 mm^3. In contrast, the tumor volume of the DMSO-treated mice continued to increase to a volume of about 350 mm^3. Histological sections of tumors from each group were prepared after the 8th day of IC261 treatment. The tumor sections were subjected to hematoxylin and eosin (H-E) stain, TUNEL stain, and BrdU staining to ascertain the cell structure, and frequencies of cell apoptosis, and cell proliferation within the tumors. […] The images shown in FIG. 7D are representative of at least 10 fields viewed over two stained sections per animal.

[13] = system: TOV112D/Luc human ovarian cancer cells; assay: Peritoneal carcinomatosis model mice (TOV112D/Luc intraperitoneal xenograft); type: in vivo
Protocol: The effect of CSNK1ε on the cell viability of ovarian cancer cells was then investigated in vivo. Peritoneal carcinomatosis model mice were generated by the intraperitoneal injection of TOV112D/Luc cells. After one week, the mice were randomized into control and experimental groups, which then received daily injections of IC261 or DMSO carrier for three weeks. Weekly Luc imaging was performed for each mouse at the termination of each week of the experiment to monitor the relative viability of cancer cells that have established in the mice. […] As illustrated in the survival graph in FIG. 11B, the DMSO group and IC261 treatment groups diverged in percent survival starting at day 30 when the DMSO group began to experience drastic mortality.

[14] = system: WNT signaling (β-catenin activity) in COLO720E ovarian cells; assay: Relative β-catenin activity (WNT signaling) in COLO720E ovarian cells; type: cell-based, human; conditions: higher doses of IC261 (0, 0.67, 3.3, 6.67 μM tested)
Protocol: as §5
The impact of stable knock-down of CSNK1ε was assessed for the expression for WNT signal function. To confirm the efficacy of the stable knockdown technique in ovarian cells, Dox-inducible lentivirus constructs encoding shRNAs targeting CSNK1ε were transduced into COLO720E ovarian cells. […] Next, to assess the WNT signaling activity, relative β-catenin activity was assayed as described, supra, for COLO720E ovarian cells transduced with the shRNA encoding lentivirus targeting CSNK1ε. […] A similar effect on relative β-catenin activity was observed upon administration of IC261, the inhibitor of CSNK1ε. […]

[15] = system: HFF with cMYC induced, TOV112D, COLO720E (amplified c-MYC expressing); assay: Cell viability with increasing IC261, cells with amplified c-MYC; type: cell-based, human; conditions: IC261 at 0.5 log μM and above
Protocol: (§6) The effect of CSNK1ε on the cell viability of ovarian cancer lines was investigated in vitro. First, HFF (non-cancer primary cells) with control vector, RMG-1 (normal c-MYC expressing), CaOV3 (normal c-MYC expressing), HFF with cMYC induced (amplified c-MYC expressing), TOV112D (amplified c-MYC expressing), and COLO720E (amplified c-MYC expressing) were exposed to increasing concentrations of IC261. Cell viability was assessed as described above.

IGROV-1 = assay: IC261 loss of cell viability, ovarian cancer cell panel; type: cell-based; conditions: Homo sapiens
Protocol: as §6
(§7) Similar assays were performed with an additional panel of ovarian cancer cells, including IGROV-1, PE01, DOV13, OAW42, TOV21G, and SKOV3. The log of the half maximal effective concentration (log IC50) was calculated to reflect half the concentration of IC261 required to results in complete loss of cell viability.

PE01 = assay: as above; type: cell-based; conditions: Homo sapiens
Protocol: as §6, §7

SKOV3 = assay: as above; type: cell-based; conditions: Homo sapiens, SK-OV-3
Protocol: as §6, §7

TOV21G = assay: as above; type: cell-based; conditions: Homo sapiens
Protocol: as §6, §7

DOV13 = assay: as above; type: cell-based; conditions: Homo sapiens
Protocol: as §6, §7

OAW42 = assay: as above; type: cell-based; conditions: Homo sapiens, OAW-42
Protocol: as §6, §7

[16] = Cell viability with increasing IC261, normal c-MYC expressing cells; type: cell-based; conditions: human; IC261 at 0.5 log μM and above
Protocol: as §6

[17] = system: IMR-32 neuroblastoma cells (amplified MYCN expression); assay: Cell viability of neuroblastoma cells treated with IC261; type: cell-based
Protocol: Lentiviral vectors expressing Dox-inducible shRNAs targeting CSNK1ε were transduced into SK-N-AS, a neuroblastoma line with normal MYCN expression, and SK-N-BE2 and IMR-32, neuroblastoma lines with amplified MYCN expression. Expression of the shRNAs were induced with Dox and cell viability was assayed after four days using the CellTiter Glo assay (Promega, Madison, Wis.).
To evaluate the therapeutic potential of CSNK1ε kinase inhibitors for the inhibition of tumor cell growth, the kinase function of CSNK1ε polypeptide was blocked with IC261, a small molecule inhibitor of CSNK1ε and d kinase activity (Mashhoon, N., et al., “Crystal Structure of a Conformation-Selective Casein Kinase-1 Inhibitor,” J Biol Chem 275:20052-20060, 2000). Specifically, the sensitivity of MYC overexpressing cells to IC261 relative to control, was determined in vitro utilizing the neuroblastoma cell lines SK-N-AS (normal MYCN expression) and IMR-32 (amplified MYCN expression). Cultured cells were treated with a range of concentrations of IC261 and percent of cell viability was recorded over four days as described above. […] The difference in cell viability was significant at the 1, 5 and 10 μM concentrations.

Structure (SMILES): CC1=C2C[C@H]3[C@@H](CC=C4C[C@@H](O)CC[C@@]43C)[C@@H]2CC[C@]12O[C@@H]1C[C@H](C)CN[C@H]1[C@H]2C [Cyclopamine]
- growth inhibition [1]: more pronounced
- growth inhibition [2]: Growth inhibition was detected

Structure (SMILES): COc1cc(OC)c(/C=C2/C(=O)Nc3ccccc32)c(OC)c1 [IC261]
- cell viability with low doses of cisplatin [3]: large reduction in cell viability
- response to cisplatin (cell viability) [4]: greatly sensitized
- response to cisplatin (cell viability) [5]: greatly sensitized
- cell appearance in micrographs [6]: detached from the plate surface and balled up
- cell appearance in micrographs [7]: maintained healthy spreading and attachment
- cell viability with low doses of cisplatin [8]: large reduction in cell viability
- cells in the G2 phase [9]: small and transient ability to cause cell cycle arrest in G2
- percentage of cells in the G1 phase [9]: drastically reduced
- cells in the G2 phase [10]: arrested at the G2 checkpoint
- percentage of cells in the G1 phase [10]: drastically reduced
- WNT reporter (β-catenin signal) [11]: repression of the WNT reporter
- average tumor volume at end of treatment schedule ([12]; 20.5 mg/kg subcutaneously once daily for seven days): about 100 mm^3
- cell proliferation in tumor sections (BrdU stain) vs DMSO control ([12]; after the 8th day of IC261 treatment): drastically reduced indications of cell proliferation
- average tumor volume ([12]; day three of treatment, 20.5 mg/kg s.c. daily): reduced
- tumor volume vs DMSO-treated mice ([12]; first two days of treatment, 20.5 mg/kg s.c. daily): no significant difference
- survival vs DMSO group ([13]; daily injections for three weeks, groups diverged starting at day 30): prolonged the life of the subjects
- cancer cell proliferation and viability (Luc imaging) vs DMSO ([13]; daily injections, after two weeks): significantly reduced cancer cell proliferation and viability
- difference among treatment groups (Luc imaging) ([13]; week four): much more pronounced
- relative β-catenin activity [14]: reduced by more than two thirds
- relative viability [15]: ≤ 25%
- IC50 (IGROV-1): 585 µM
- IC50 (PE01): 8.8 µM
- IC50 (SKOV3): 4.63 µM
- IC50 (TOV21G): 6.55 µM
- IC50 (DOV13): 7.09 µM
- IC50 (OAW42): 6.61 µM
- viability [16]: ≥ 75%
- percent cell viability, IMR-32 compared to SK-N-AS ([17]; 48 hours, IC261 0.33 μg/ml and higher): lower percent cell viability
- difference in cell viability, IMR-32 vs SK-N-AS ([17]; 72 hours): significant difference in cell viability
- difference in cell viability, IMR-32 vs SK-N-AS ([17]; 96 hours, higher doses): not statistically significant
